Measurements from the supplement of paper PMC11616607.

tested on: OVCAR8; assay: drug sensitivity score (DSS) from 5-point dose-response viability curve (DSS (area-under-curve based score)); higher = more sensitive (stronger growth inhibition or killing); extreme values may be limits of the assay; details: exposure time: 72 h; concentration range: 5 concentrations over 10,000-fold range
How it was run: (§1)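 Ovarian cancer and normal ovarian cell lines were tested in 384-well plates, with drugs dispensed acoustically (Echo 550) in DMSO or water at five concentrations covering a 10,000-fold range. After 1,500 cells per well were added, plates were incubated for 3 days at 37°C and 5% CO2, and viability was read by CellTiter-Glo luminescence on a PHERAstar FS. Breeze software gave a drug sensitivity score for each cell line and drug, where a higher score means greater sensitivity. A value of zero means no response.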

| SMILES | drug sensitivity score |
| --- | --- |
| CC1CCC(n2c3cnccc3c3cnc(Nc4ccc5c(n4)CCN(C(=O)CO)C5)nc32)CC1 (configuration not stated) [AMG-925] | 0 |
| CC(C)[C@H](C(=O)Nc1ccc(C(=O)NO)cc1)c1ccccc1 [AR-42] | 16.8 |
| Cc1sc2c(c1C)C(c1ccc(Cl)cc1)=N[C@@H](CC(=O)Nc1ccc(OCCOCCOCCOCCNc3cccc4c3C(=O)N(C3CCC(=O)NC3=O)C4=O)cc1)c1nnc(C)n1-2 (some centres not stated) [ARV-825] | 15.5 |
| COc1cc(N2CCC(N3CCN(C)CC3)CC2)ccc1Nc1ncnc(Nc2ccccc2S(=O)(=O)C(C)C)n1 [ASP3026] | 4.3 |
| O=C(NC1CCNCC1)c1n[nH]cc1NC(=O)c1c(Cl)cccc1Cl [AT7519] | 15.5 |
| O=C(Nc1c[nH]nc1-c1nc2ccc(CN3CCOCC3)cc2[nH]1)NC1CC1 [AT9283] | 3.1 |
| CC[C@H](CC#N)OC(=O)N[C@@H](C)c1cccc(NC(=O)Nc2ccc(-c3cnco3)c(OC)c2)c1 [AVN944] | 11.1 |
| COc1cc(N2CCN(C)CC2)ccc1Nc1nccc(-c2cn(C)c3cnccc23)n1 [AZ191] | 2.2 |
| COc1cc(OC2CCN(C)CC2)ccc1Nc1ncc2c(n1)n(C1CCCC1)c(=O)n2C [AZ 3146] | 4.6 |
| CN(C)CCCOc1ccc(-c2ccc3ncc4c(c3c2)n(C2CCOCC2)c(=O)n4C)cn1 [AZD0156] | 0 |
| N[C@@H]1CCCN(c2c(/C=C3\SC(=O)NC3=O)cccc2-c2ccccc2)C1 [AZD1208] | 0.1 |
| Cc1cc(Nc2nc(N[C@@H](C)c3ncc(F)cn3)ncc2Cl)[nH]n1 [AZD1480] | 0 |
| COc1cc2ncnc(Nc3cccc(Cl)c3F)c2cc1OC(=O)N1CCN(C)C[C@H]1C [AZD3759] | 0 |
| Cc1[nH]nc(C(F)(F)F)c1Cc1sc2c(c1C(=O)N1C[C@](C)(O)CO1)c(=O)n(C)c(=O)n2C(C)C [AZD3965] | 0 |

tested on: Ovsaho; assay: as above; details: exposure time: 72 h; concentration range: 5 concentrations over 10,000-fold range
How it was run: as §1

| SMILES | drug sensitivity score |
| --- | --- |
| CCOc1ccn(-c2ccc(F)cc2)c(=O)c1C(=O)Nc1ccc(Oc2ccnc(N)c2Cl)c(F)c1 | 0 |
| CCn1c(C(=O)N(C2CC2)C2CC2)cc2c3c(ncn3C)c(Nc3cc(C)n(C)n3)nc21 | 0 |
| C[C@@]1(C(=O)Nc2ccc(F)nc2)CCCN1c1nc(Nc2cc(C3CC3)n[nH]2)c2cccn2n1 | 7.5 |
| Cc1c(-c2ccc(N3CCc4cccc(C(=O)Nc5nc6ccccc6s5)c4C3)nc2C(=O)O)cnn1CC12CC3CC(CC(C3)C1)C2 | 2.5 |
| Cc1nn(C)c(COc2ccc(N3CCN(S(=O)(=O)N(C)C)CC3)cc2)c1-c1cccc2c(CCCOc3cccc4ccccc34)c(C(=O)O)n(CCN3CCOCC3)c12 | 8.6 |
| O=c1[nH]c(C2CCCN2)nc2c1oc1ccc(Cl)cc12 (configuration not stated) | 0 |
| COc1ccc(C[C@H](NC(=O)[C@H](C)NC(=O)CN2CCOCC2)C(=O)N[C@@H](Cc2ccccc2)C(=O)C2(C)CO2)cc1 (stereo in doubt) [ONX-0914] | 19.6 |
| CC/C(=C(\c1ccc(O)cc1)c1ccc(OCCN(C)C)cc1)c1ccccc1 [4-hydroxytamoxifen] | 3.9 |
| Nc1ncnc2c1nc(N)n2[C@@H]1O[C@H](CO)[C@@H](O)[C@H]1O [8-amino-adenosine] | 26 |
| Nc1ncnc2c1nc(Cl)n2[C@@H]1O[C@H](CO)[C@@H](O)[C@H]1O [8-chloro-adenosine] | 18.5 |
| COc1cc2c(cc1OCCCN1CCCC1)N=C(N)C21CCC1 [A-366] | 0.3 |
| COc1ccc(S(=O)(=O)Nc2cccnc2Nc2ccc(O)cc2)cc1 [ABT-751] | 7 |
| C[C@H](Nc1ncnc2[nH]cnc12)c1cc2ccc(F)cc2nc1-c1ccccn1 [AMG319] | 1.2 |
| COCCOc1cnc2ccn([C@H](C)c3nnc4c(F)cc(-c5cnn(C)c5)cn34)c(=O)c2c1 [AMG-337] | 0 |
| CC1CCC(n2c3cnccc3c3cnc(Nc4ccc5c(n4)CCN(C(=O)CO)C5)nc32)CC1 (configuration not stated) [AMG-925] | 0.1 |
| CC(C)[C@H](C(=O)Nc1ccc(C(=O)NO)cc1)c1ccccc1 [AR-42] | 9 |
| Cc1sc2c(c1C)C(c1ccc(Cl)cc1)=N[C@@H](CC(=O)Nc1ccc(OCCOCCOCCOCCNc3cccc4c3C(=O)N(C3CCC(=O)NC3=O)C4=O)cc1)c1nnc(C)n1-2 (some centres not stated) [ARV-825] | 10 |
| COc1cc(N2CCC(N3CCN(C)CC3)CC2)ccc1Nc1ncnc(Nc2ccccc2S(=O)(=O)C(C)C)n1 [ASP3026] | 4.7 |
| O=C(NC1CCNCC1)c1n[nH]cc1NC(=O)c1c(Cl)cccc1Cl [AT7519] | 8.9 |
| O=C(Nc1c[nH]nc1-c1nc2ccc(CN3CCOCC3)cc2[nH]1)NC1CC1 [AT9283] | 5.2 |
| CC[C@H](CC#N)OC(=O)N[C@@H](C)c1cccc(NC(=O)Nc2ccc(-c3cnco3)c(OC)c2)c1 [AVN944] | 9.5 |
| COc1cc(N2CCN(C)CC2)ccc1Nc1nccc(-c2cn(C)c3cnccc23)n1 [AZ191] | 1.6 |
| COc1cc(OC2CCN(C)CC2)ccc1Nc1ncc2c(n1)n(C1CCCC1)c(=O)n2C [AZ 3146] | 4.7 |
| CN(C)CCCOc1ccc(-c2ccc3ncc4c(c3c2)n(C2CCOCC2)c(=O)n4C)cn1 [AZD0156] | 3.2 |
| N[C@@H]1CCCN(c2c(/C=C3\SC(=O)NC3=O)cccc2-c2ccccc2)C1 [AZD1208] | 3.5 |
| Cc1cc(Nc2nc(N[C@@H](C)c3ncc(F)cn3)ncc2Cl)[nH]n1 [AZD1480] | 0.7 |
| COc1cc2ncnc(Nc3cccc(Cl)c3F)c2cc1OC(=O)N1CCN(C)C[C@H]1C [AZD3759] | 0 |
| Cc1[nH]nc(C(F)(F)F)c1Cc1sc2c(c1C(=O)N1C[C@](C)(O)CO1)c(=O)n(C)c(=O)n2C(C)C [AZD3965] | 0.8 |
